Measured values from publication PMC3775124 (Nuclear Medicine and Biology, 2013).

Experiments:
human BCRP = human BCRP (Homo sapiens, UniProt Q9UNQ0); details: [^14C]PhIP 2 μM; n = 1
Method: (§1) For the in vitro transport studies LLC-PK1 cells transduced with human MDR1 or murine Mdr1a and respective wild-type LLC cells were used. Additionally, Madin-Darby canine kidney type II (MDCK-II) cells transduced with murine Bcrp1 or human BCRP or human MRP1 and respective wild-type MDCK-II cells were used. The cell lines were a kind gift from Piet Borst and Alfred Schinkel (The Netherlands Cancer Institute, Amsterdam, the Netherlands). Culturing of the cells was performed as described earlier. MDR1- and Mdr1a-overexpressing LLC cells were regularly tested for vincristine sulfate resistance (0.64 μM) as described before. The MDCK-II cells transduced with Bcrp1 or BCRP were regularly tested for mitoxantrone resistance (20 μM).
(§2) CETA was performed in triplicate as described previously. With a density of 0.3 × 10^6 cells/cm^2 LLC cells were seeded on transparent polyester membrane filters (Transwell-Clear®, 6-well, 24-mm diameter, 0.4-μm pore size, Corning Costar Corporation, Cambridge, MA, USA). […] Transport experiments were performed 5–7 days after the cells reached 100% confluence. […] Control CETA was performed with calcein AM (1 μM) for MRP1 [26] and [^14C]PhIP (2 μM) for Bcrp1/BCRP. The membrane integrity was determined by mannitol diffusion and transepithelial electrical resistance (TEER), with criteria for exclusion described earlier.

murine Bcrp1 = murine Bcrp1 (Mus musculus, UniProt Q7TMS5); details: [^14C]PhIP 2 μM; n = 1
Sequence of murine Bcrp1 (Q7TMS5 whole entry): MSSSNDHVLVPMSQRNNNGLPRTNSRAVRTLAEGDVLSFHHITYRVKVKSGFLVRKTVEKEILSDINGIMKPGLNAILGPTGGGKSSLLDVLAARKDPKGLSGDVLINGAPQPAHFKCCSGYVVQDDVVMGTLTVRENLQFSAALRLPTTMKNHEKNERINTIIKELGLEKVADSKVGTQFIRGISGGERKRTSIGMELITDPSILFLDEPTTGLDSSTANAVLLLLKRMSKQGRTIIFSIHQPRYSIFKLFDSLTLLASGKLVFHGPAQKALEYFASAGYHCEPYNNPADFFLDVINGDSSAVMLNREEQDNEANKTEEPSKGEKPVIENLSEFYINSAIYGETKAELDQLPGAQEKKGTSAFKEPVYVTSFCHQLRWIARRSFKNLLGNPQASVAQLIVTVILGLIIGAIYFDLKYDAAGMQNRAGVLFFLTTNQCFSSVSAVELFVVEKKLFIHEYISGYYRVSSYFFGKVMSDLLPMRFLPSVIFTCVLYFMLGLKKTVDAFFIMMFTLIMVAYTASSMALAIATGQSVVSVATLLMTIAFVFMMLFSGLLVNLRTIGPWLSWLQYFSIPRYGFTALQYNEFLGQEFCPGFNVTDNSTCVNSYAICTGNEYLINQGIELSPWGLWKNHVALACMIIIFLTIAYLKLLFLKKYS
Method: as §1, §2

cerebral Pgp = system: cerebral Pgp; parameters: method as in PMID 20016890; details: tariquidar 15 mg/kg; rats; cited from earlier work
murine Mdr1a = molecular target: T1, murine Mdr1a (Mus musculus, UniProt P21447); assay: CETA in LLC cells transduced with murine Mdr1a; assay type: in vitro ADME; details: tariquidar 0.5 μM; Mdr1a-overexpressing LLC cells
T1 construct: host or cells: LLC-PK1 (porcine kidney) cells
T1 sequence (P21447 whole entry): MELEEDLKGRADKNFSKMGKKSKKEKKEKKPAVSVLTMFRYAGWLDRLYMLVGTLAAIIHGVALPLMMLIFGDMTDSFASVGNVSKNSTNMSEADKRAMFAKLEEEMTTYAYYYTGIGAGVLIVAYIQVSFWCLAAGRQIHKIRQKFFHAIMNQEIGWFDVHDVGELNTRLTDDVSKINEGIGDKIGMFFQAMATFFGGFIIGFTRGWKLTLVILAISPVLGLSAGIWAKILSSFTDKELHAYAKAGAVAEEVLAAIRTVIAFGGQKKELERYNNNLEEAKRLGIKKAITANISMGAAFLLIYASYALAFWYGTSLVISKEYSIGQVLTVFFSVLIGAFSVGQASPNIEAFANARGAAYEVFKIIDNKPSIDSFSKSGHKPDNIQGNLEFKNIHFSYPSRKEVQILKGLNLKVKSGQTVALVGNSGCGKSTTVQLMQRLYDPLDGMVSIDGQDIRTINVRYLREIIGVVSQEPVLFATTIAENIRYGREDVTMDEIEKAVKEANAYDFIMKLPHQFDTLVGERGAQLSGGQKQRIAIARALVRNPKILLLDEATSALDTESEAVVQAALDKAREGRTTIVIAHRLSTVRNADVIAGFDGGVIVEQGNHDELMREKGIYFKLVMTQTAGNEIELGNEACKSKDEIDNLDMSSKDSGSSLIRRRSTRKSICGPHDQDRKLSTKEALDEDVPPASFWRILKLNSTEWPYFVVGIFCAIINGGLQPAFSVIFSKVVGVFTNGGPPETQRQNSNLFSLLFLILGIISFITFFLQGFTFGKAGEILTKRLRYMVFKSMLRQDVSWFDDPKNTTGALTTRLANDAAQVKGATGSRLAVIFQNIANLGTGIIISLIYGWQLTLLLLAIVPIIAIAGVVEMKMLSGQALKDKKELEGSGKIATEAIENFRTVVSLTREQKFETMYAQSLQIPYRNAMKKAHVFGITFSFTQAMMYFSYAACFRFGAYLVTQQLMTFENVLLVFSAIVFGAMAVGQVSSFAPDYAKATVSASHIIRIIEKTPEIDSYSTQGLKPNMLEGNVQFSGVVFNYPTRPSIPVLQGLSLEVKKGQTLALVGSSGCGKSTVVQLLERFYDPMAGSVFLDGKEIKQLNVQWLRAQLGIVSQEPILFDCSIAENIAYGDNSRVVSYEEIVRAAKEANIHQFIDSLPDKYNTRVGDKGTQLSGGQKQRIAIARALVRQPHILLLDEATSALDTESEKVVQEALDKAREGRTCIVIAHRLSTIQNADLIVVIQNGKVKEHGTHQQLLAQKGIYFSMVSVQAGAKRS

[1] = parameters: method as in PMID 19910428; details: cited from earlier work
human MRP1 = human MRP1 (Homo sapiens, UniProt P33527); assay: CETA in MDCK cells transduced with human MRP1; details: calcein AM 1 μM; n = 1
Sequence of human MRP1 (P33527 whole entry): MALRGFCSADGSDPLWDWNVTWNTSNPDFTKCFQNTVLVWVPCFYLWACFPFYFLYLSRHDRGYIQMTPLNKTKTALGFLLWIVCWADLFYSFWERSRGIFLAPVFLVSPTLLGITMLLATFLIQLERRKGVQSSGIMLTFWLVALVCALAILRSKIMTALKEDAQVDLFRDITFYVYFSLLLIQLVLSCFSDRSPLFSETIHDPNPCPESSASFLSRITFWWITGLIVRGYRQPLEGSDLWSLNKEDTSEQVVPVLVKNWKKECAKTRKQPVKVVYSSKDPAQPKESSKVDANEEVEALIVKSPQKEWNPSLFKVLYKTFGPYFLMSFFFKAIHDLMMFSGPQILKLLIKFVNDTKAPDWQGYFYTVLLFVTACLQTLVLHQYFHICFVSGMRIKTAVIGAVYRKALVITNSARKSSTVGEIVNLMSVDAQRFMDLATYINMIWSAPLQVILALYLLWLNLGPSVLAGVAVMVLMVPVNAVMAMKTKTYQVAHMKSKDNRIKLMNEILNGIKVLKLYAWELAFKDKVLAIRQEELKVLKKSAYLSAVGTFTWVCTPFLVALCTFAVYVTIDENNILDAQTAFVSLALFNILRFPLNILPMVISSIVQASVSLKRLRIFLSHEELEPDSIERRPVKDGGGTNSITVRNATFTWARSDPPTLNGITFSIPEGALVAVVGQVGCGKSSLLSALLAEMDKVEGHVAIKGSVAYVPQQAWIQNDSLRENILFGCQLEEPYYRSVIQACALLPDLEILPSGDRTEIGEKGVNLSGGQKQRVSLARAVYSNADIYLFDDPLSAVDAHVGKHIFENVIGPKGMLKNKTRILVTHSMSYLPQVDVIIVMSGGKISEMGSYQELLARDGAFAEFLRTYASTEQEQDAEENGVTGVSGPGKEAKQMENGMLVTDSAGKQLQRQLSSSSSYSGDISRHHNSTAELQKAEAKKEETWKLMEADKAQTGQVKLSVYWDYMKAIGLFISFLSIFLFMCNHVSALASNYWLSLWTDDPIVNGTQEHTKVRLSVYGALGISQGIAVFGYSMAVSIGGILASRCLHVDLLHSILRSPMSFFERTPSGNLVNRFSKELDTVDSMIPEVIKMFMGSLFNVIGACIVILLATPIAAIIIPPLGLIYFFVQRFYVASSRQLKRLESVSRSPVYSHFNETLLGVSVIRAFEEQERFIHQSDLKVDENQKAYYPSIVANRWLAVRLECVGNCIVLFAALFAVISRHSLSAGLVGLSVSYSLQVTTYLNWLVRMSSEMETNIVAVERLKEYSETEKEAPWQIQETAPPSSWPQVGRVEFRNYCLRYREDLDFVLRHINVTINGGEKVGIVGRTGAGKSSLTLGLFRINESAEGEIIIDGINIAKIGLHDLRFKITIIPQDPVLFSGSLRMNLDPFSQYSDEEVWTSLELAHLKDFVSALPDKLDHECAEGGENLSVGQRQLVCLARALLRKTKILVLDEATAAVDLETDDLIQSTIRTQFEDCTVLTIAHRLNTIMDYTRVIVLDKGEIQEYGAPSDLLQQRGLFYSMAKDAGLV
Method: as §1, §2

Sequence of human BCRP (Q9UNQ0 whole entry): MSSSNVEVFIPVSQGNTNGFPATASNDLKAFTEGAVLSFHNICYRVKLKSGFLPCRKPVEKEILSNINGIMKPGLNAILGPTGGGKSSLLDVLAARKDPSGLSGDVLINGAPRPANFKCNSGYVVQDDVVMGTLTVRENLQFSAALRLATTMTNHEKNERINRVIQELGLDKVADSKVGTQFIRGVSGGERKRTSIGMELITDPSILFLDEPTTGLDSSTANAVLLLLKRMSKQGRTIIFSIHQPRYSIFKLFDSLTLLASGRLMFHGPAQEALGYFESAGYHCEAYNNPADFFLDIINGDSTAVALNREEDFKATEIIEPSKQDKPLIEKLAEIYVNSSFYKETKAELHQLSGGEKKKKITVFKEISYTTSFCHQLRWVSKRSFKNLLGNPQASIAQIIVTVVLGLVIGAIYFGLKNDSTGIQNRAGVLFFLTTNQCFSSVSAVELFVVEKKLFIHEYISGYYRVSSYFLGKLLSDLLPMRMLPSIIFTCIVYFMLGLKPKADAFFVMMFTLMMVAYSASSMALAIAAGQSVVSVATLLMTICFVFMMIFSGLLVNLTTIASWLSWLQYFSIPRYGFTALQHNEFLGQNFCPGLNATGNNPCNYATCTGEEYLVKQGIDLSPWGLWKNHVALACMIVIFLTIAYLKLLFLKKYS

**Q.** Which results are given for `Cn1c(N)nc2ncc(-c3ccccc3)cc21` [[^14C]PhIP, [^14C]2-amino-1-methyl-6-phenylimidazo[4,5-b]pyridine]?
**A.** control CETA for BCRP function (human BCRP): functional; control CETA for Bcrp1 function (murine Bcrp1): functional

**Q.** For `COc1cc2c(cc1OC)CN(CCc1ccc(NC(=O)c3cc(OC)c(OC)cc3NC(=O)c3cnc4ccccc4c3)cc1)CC2` [tariquidar, Tariquidar dimesylate], which “inhibition of cerebral Pgp” value (cerebral Pgp) is on record?
**A.** The value was “complete inhibition”.

**Q.** And the “inhibition of [^3H]verapamil transport” value (murine Mdr1a)?
**A.** Its value is “almost completely inhibited”.

**Q.** And the “influence on (R)-[^11C]verapamil metabolism and plasma protein binding” value [1]?
**A.** The value was “does not influence”.

**Q.** With calcein AM as the compound, how does the “control CETA for MRP1 function” value (human MRP1) read?
**A.** Its value is “functional MRP1 was present”.
